The structures appear in SMILES notation. Read-outs that look alike come from different tables or passages of the source.

The test system of experiment [1] is radish (Raphanus sativus). As to conditions: spray. How it is done: (§1) The herbicidal effect of formic acid was compared with that of acetic acid in a greenhouse study using radish (Raphanus sativus) and wheat (Triticum aestivum) as test plants. Both formic acid and acetic acid were diluted in water at 1, 3, and 5%, and deionized water was used as a control. Tween 20 was added to each of the solutions at a rate 0.04% for use as a surfactant. Solutions were applied to plants using a small handheld sprayer. Plants were evaluated at 24- and 72-hours after treatment for the % control.

Experiment [2] deals with wheat (Triticum aestivum). The settings on record: spray. As for the experimental part:
as §1

Experiment [3] concerns dicotyledonous radish plants (Raphanus sativas). As to conditions: one day post-treatment. From the text: (§2) In order to determine whether formic acid could be used as a foliar herbicide it was applied as a foliar spray to the leaves of dicotyledonous radish plants (Raphanus sativas) and monocotyledonous wheat plants (Triticum aestivum). Solutions were applied to plants using a small handheld sprayer.
(§3) Formic acid and acetic acid solutions at three concentrations (1%, 3%, 5%) were applied and water was used as a check. A barrier was inserted between the rows of plants on either side of the row being treated to avoid drift of sprays into neighboring rows. Plants were evaluated at 24-hour and 72-hour intervals for the number of surviving plants and a percentage was derived from this number in comparison with the number of plants originally present in the row.

For experiment [4], the system named is monocotyledonous wheat plants (Triticum aestivum). As to conditions: foliar spray 5%; one day post-treatment.
From the text: as §2, §3

Experiment [5] relates to annual weeds tested including foxtail, lambsquarters, and pigweed. The settings on record: found by the USDA; cited from earlier work.
The subject of experiment [6] is Canada thistle and other perennials. As to conditions: cited from earlier work.

For `CC(=O)O` [Acetic acid], the “% control of the dicot weeds (radish)” value in experiment [1] (1%) is reported as 51%; in experiment [1] (3%), 71%. Besides, the “control of radish plants compared with formic acid (100%)” value in experiment [1] (5% dilution) is “comparable”. Besides, the “% control of wheat seedlings” value is 28% in experiment [2] (5%, 72-h); 5-14% in experiment [2] (lower concentrations (1 and 3%), after 72-h). In addition, the entries for the “foliage surviving, radish” value in experiment [3] (foliar spray 1%) and in experiment [3] (foliar spray 3%) were 50% and 30%, respectively. For the same molecule, the “killing of foliage of radish plants” value in experiment [3] (foliar spray 5%) is “killed all foliage”. Moreover, the wheat plants killed in experiment [4] is recorded as 30%. For the same molecule, in experiment [5], the “share of annual weeds tested against which effective” value was 80%. Besides, the control of perennials entry in experiment [6] is “does not control the root system”.

(Values after patent US20070281857A1, “FORMIC ACID AS AN HERBICIDE” (MARRONE ORGANIC INNOVATIONS, priority 2006, published 2007).)
